Data from paper PMC7665192, “A natriuretic peptide from Arabidopsis thaliana (AtPNP-A) can modulate catalase 2 activity” (Scientific Reports, 2020).
Positions of bridges follow the written chain, without caps; N, C: chain ends. Residues, ends and D or L forms follow the SMILES beside them. *: point of attachment. Biotin = O=C1N[C@H]2[C@H](CS[C@H]2CCCCC(=O)*)N1

How the values were obtained:
CAT2 = assay: Protein-peptide cross-linking, affinity-based isolation and LC–MS/MS; assay type: binding, Arabidopsis thaliana; settings: biotinylated pAtPNP-A, cross-linking in A. thaliana mesophyll cell protoplasts; data set published in ref 44
Description: Cross-linking experiments followed by affinity-based isolation and LC-MS/MS identification of […] interactors were performed on A. thaliana (Col-0) wild type (WT) mesophyll cell protoplasts (MCPs) as described in[44].

[1] = test system: mitogen-activated protein kinase (MAPK) pathway; assay: MAPK pathway activation; settings: data not shown
CAT = assay: Total CAT activity in protein extracted from WT seedlings; assay type: biochemical, Arabidopsis thaliana; settings: 1 nM
Description: Enzymatic activity of CAT isozymes and total CAT activities of protein extracted from WT and atpnp-a or cat2-2 mutant lines, when indicated sprayed with 1 nM pAtPNP-A or pScr 20 min before harvesting, were determined zymographically and spectrophotometrically, as described in[56]. Relative quantification of intensity of bands corresponding to different CAT isoforms was performed with ImageJ version 1.48 (https://imagej.nih.gov/ij/). Enzymatic activity of the rCAT2 in the presence of absence of 100 nM rAtPNP-A, pAtPNP-A or pScr were determined with the use of Amplex Red catalase assay kit (Invitrogen) according to the manufacturer’s instructions.
Figure 3 AtPNP-A directly interacts with CAT2 to modulate its enzymatic activity in vitro. (a) Zymogram depicting changes in the enzymatic activity of CAT isoforms extracted from wild type (WT) or cat2-2 knockout mutant seedlings in response to 1 nM pAtPNP-A or pScr. Densitometric semi-quantification of bands corresponding to CAT2, normalized to the loading control (dark-coloured band on zymogram) for WT samples treated with 1 nM pAtPNP-A or pScr (mean ± SD, Student’s t-test, n = 3, P < 0.05). […] (b) Total CAT activity in protein extracted from WT seedlings assayed with Amplex Red catalase assay kit in the presence of 1 nM pAtPNP-A, rAtPNP-A, or pScr. […] (c) Enzymatic activity of rCAT2 in the presence of 100 nM pAtPNP-A, rAtPNP-A, or pScr.

P. syringae = test system: P. syringae; parameters: method as in PMID 32409317, PMID 28401640; settings: cited from earlier work
[2] = test system: SPL8, squamosal promoter binding protein-like 8; assay: Yeast two-hybrid (Y2H) screen; parameters: species or system A. thaliana; settings: bait AtPNP-A amino acids 26–130, prey At1g02065.1
Description: (§1) The Y2H screen using AtPNP-A as bait was carried out by Dualsystems Biotech AG (Zurich, Switzerland). The bait construct for the screening was made by subcloning the cDNA fragment encoding exported portion of AtPNP-A (amino acids 26 to 130) (Fig. 1a) into the pLexA-DIR vector (Dualsystems Biotech AG). The bait construct was transformed into the strain NMY32 (MATa his3Δ200 trp1-901 leu2-3,112 (lexAop)8-ADE2 LYS2::(lexAop)4-HIS3 URA3::(lexAop)8-lacZ GAL4) using standard procedures. Correct expression of the bait was verified by western blotting of cell extracts using a mouse monoclonal antibody directed against the LexA domain (Dualsystems Biotech AG). The absence of self-activation was verified by co-transformation of the bait together with a control prey and selection on minimal medium lacking tryptophan, leucine, and histidine (selective medium). For the Y2H screen, the bait was co-transformed together with a normalized A. thaliana universal P02403 cDNA library (Dualsystems Biotech AG) into NMY32. 3.1 × 10^6 transformants were screened, yielding 96 transformants that grew on selective medium. […] Library plasmids were isolated from positive clones. The identity of positive interactants was determined by sequencing. DNA sequences translated in all three reading frames and searching against the SwissProt database using the BLASTX algorithm (https://blast.ncbi.nlm.nih.gov).

[3] = test system: NAD(P)-binding Rossmann-fold superfamily protein; assay: Yeast two-hybrid (Y2H) screen; parameters: species or system A. thaliana; settings: bait AtPNP-A amino acids 26–130, prey At1g07440.1
Description: as §1

[4] = test system: Calcium-binding EF-hand family protein; assay: Yeast two-hybrid (Y2H) screen; parameters: species or system A. thaliana; settings: bait AtPNP-A amino acids 26–130, prey At2g41410.1
Description: as §1

stomata = settings: cited from earlier work
From the text: A PNP_CAT interaction in plant responses to infecting pathogens is not surprising. CATs commonly function to down-regulate ROS during ABA-induced stomatal closure, and ABA-induced stomatal closure can be inhibited by removal of H2O2 via CAT2[73],[74]. […] Therefore, it is tempting to speculate that AtPNP-A modulates the effect of ABA on stomatal aperture through the interaction w ...

[5] = test system: MAC5S, MOS4-associated complex subunit 5C; assay: Yeast two-hybrid (Y2H) screen; assay type: binding, A. thaliana; settings: bait AtPNP-A amino acids 26–130, prey At5g07060.1
Description: as §1

rCAT2 = assay: SPR of CAT2 and AtPNP-A recombinant proteins, CM5 chip, both configurations; assay type: binding, Arabidopsis thaliana; settings: amine coupling, 20 °C
Description: N-terminally 6xHis-tagged AtPNP-A and CAT2 proteins were expressed in BL21 (DE3) One Shot E. coli cells (Life Technologies), purified by affinity chromatography with Ni–NTA beads (Qiagen) and HisTrap HP column (GE Healthcare Lifesciences) as described in[21]. The purity of preparations was verified on 12.5% SDS-PAGE, stained with Coomassie Brilliant Blue (Bio-Rad). Protein identities were confirmed in MS analysis, and protein concentration was determined according to the method of Bradford using BSA as a standard.
SPR experiments were performed at 20 °C on Biacore T100 instrument operated using Biacore T100 control software (version 2.0.2, GE Healthcare Lifesciences) using Series S CM5 or NTA sensor chips as described in[21]. Kinetic analyses were performed at the flow of 100 μL min^−1 with pAtPNP-A (at 3.78 μM and consecutive twofold dilutions; 11 injections included) employed as a ligand and bovine liver CAT (C-40; Sigma) used as an analyte and immobilized on the active surface of the Series S CM5 sensor chip with amine coupling kit, while the surface regeneration was done with solution of glycine, pH 2.0, and the final sensorgram was generated with Scrubber (BioLogic Software Pty Ltd).
Supplementary Figure S3. In vitro association of AtPNP-A and CAT2 recombinant proteins.
(a) Recombinant protein preparations used in SPR analyses. […]

| Compound | Identification of CAT2 by LC–MS/MS (CAT2) | Activation of MAPK pathway [1] | Total CAT activity of protein extracts (CAT; WT seedling protein, Amplex Red kit, mean ± SD, n = 3, P < 0.05) | H2O2 breakdown by WT seedling protein extract (CAT; total protein extracted from WT seedlings, n = 3) | Role in response to P. syringae infection (P. syringae) | Strength of binding [2] | Strength of binding [3] | Strength of binding [4] | Effect on ABA-induced stomatal closure (stomata) | Strength of binding [5] | SPR binding of recombinant AtPNP-A to CAT2 (rCAT2) |
| --- | --- | --- | --- | --- | --- | --- | --- | --- | --- | --- | --- |
| CC(C)C[C@@H]1NC(=O)[C@H](CC(N)=O)NC(=O)[C@H](CC(N)=O)NC(=O)[C@H](CCCCN)NC(=O)[C@H](C(C)C)NC(=O)CNC(=O)[C@H](C(C)C)NC(=O)[C@H](C(C)C)NC(=O)[C@H](CC(C)C)NC(=O)[C@H]([C@@H](C)O)NC(=O)[C@H](CCC(=O)O)NC(=O)[C@H](CCCNC(=N)N)NC(=O)[C@H](CCC(N)=O)NC(=O)[C@H]([C@@H](C)O)NC(=O)CNC(=O)[C@H](Cc2ccc(O)cc2)NC(=O)[C@@H](NC(=O)[C@H](C)NC(=O)[C@H](CO)NC(=O)[C@H](CCCNC(=N)N)NC(=O)[C@@H](NC(=O)[C@H](Cc2ccc(O)cc2)NC(=O)[C@@H]2CCCN2)[C@@H](C)O)CSSC[C@@H](C(=O)NCC(=O)N[C@@H](CCCNC(=N)N)C(=O)N[C@@H](CCCNC(=N)N)C(=O)N[C@@H](Cc2ccc(O)cc2)C(=O)N[C@@H](CCCNC(=N)N)C(=O)N[C@H](C(=O)N[C@@H](CCCNC(=N)N)C(=O)N[C@@H](CCCCNC(=O)CCCC[C@@H]2SC[C@@H]3NC(=O)N[C@@H]32)C(=O)O)C(C)C)NC(=O)[C@H](C)NC(=O)[C@H](CCCNC(=N)N)NC(=O)CNC(=O)[C@H](CC(N)=O)NC(=O)[C@H](CCC(N)=O)NC(=O)[C@H](Cc2c[nH]c3ccccc23)NC1=O [pAtPNP-A] (H-PYTRSACYGTQRETLVVGVKNNLWQNGRACGRRYRVRK(Biotin)-OH; disulfide 7-30; N-terminus and C-terminus assumed) | CAT2 was identified by LC–MS/MS only in samples containing pAtPNP-A | does not activate mitogen-activated protein kinase (MAPK) pathway | elevated total CAT activity | more rapid H2O2 breakdown | – | – | – | – | – | – | – |
| AtPNP-A: An A. thaliana PNP, termed AtPNP-A (At2g18660; Q9ZV52) | – | – | – | – | protective role in the response to infection with P. syringae | Weak | Moderate | Weak | significantly delay and reduce the extent of ABA-induced stomatal closure | Strong | specific AtPNP-A and CAT2 interaction in vitro |
